Assay results reported in US9000025B2, “Autotaxin inhibitors and uses thereof” (Amira Pharmaceuticals, Inc., priority 2010, dated 2015).

biological target: T1, autotaxin (ATX) (Homo sapiens, UniProt Q13822); assay: Native Autotaxin Choline Release Assay; assay type: biochemical; details: autotaxin in conditioned medium from human melanoma cell line; choline released from LPC; read-out: MDA-MB-435S Assay IC50
T1 construct: conditioned medium from the human melanoma cell line, MDA-MB-4355, which endogenously expresses autotaxin; host or cells: MDA-MB-435S human melanoma cells; serum-free conditioned medium, concentrated 20-fold
Method in brief: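 Native ATX from conditioned serum-free, phenol-red-free DMEM of confluent cells cultured 48 h; LPC as substrate. Released choline detected with choline oxidase/peroxidase/4-aminoantipyrine colour mix in 50 mM Tris pH 8, 10 min at 37 °C, absorbance 555 nm; choline quantified against standard curve, equated to LPA formed.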

Row | Structure (SMILES) | IC50 [nM]
1 | Cc1c(Sc2cccc(CC(=O)O)c2)c2ccc(Cl)cc2n1Cc1ccccc1 [Compound 1-14, [3-(1-Benzyl-6-chloro-2-methyl-1H-indol-3-ylsulfanyl)-phenyl]-acetic acid] | > 1000
2 | Cc1c(Sc2cccc(C(=O)O)c2)c2ccc(Cl)cc2n1-c1cccc(-c2ccccc2)c1 [Compound 1-28, 3-(1-Biphenyl-3-yl-6-chloro-2-methyl-1H-indol-3-ylsulfanyl)-benzoic acid] | 300 to 1000
3 | Cc1nn(C)cc1-n1c(C)c(Sc2cccc(C(=O)O)c2)c2ccc(Cl)cc21 [Compound 1-60, 3-[6-Chloro-1-(1,3-dimethyl-1H-pyrazol-4-yl)-2-methyl-1H-indol-3-ylsulfanyl]-benzoic acid] | < 300

Results, then the molecule that gave them:

Row | IC50 [nM] | Structure (SMILES)
4 | < 300 | CCn1cc(-n2c(C)c(Sc3cccc(C(=O)O)c3F)c3c(F)cc(Cl)cc32)cn1 [Compound 4-11, 3-[6-Chloro-1-(1-ethyl-1H-pyrazol-4-yl)-4-fluoro-2-methyl-1H-indol-3-ylsulfanyl]-2-fluoro-benzoic acid]
5 | < 300 | Cc1c(Sc2cc(F)cc(C(=O)O)c2)c2ccc(Cl)c(F)c2n1-c1cnn(C(C)C)c1 [Compound 4-6, 3-[6-Chloro-7-fluoro-1-(1-isopropyl-1H-pyrazol-4-yl)-2-methyl-1H-indol-3-ylsulfanyl]-5-fluoro-benzoic acid]
6 | < 300 | CCn1cc(-n2c(C)c(Sc3ccc(C)c(C(=O)O)c3)c3ccc(Cl)c(F)c32)cn1 [Compound 4-9, 5-[6-Chloro-1-(1-ethyl-1H-pyrazol-4-yl)-7-fluoro-2-methyl-1H-indol-3-ylsulfanyl]-2-methyl-benzoic acid]
